Each compound was assayed on rhythmic bladder contractions in rats (assay: Inhibitory effect against rhythmic bladder contractions in rats). Conditions: anesthetized female SD rats, intravenous, dose 0.001 mg/kg body weight.
Format: in vivo
Description: Inhibitory Effect Against Rhythmic Bladder Contractions in Rats
Female SD rats were anesthetized with an intraperitoneal administration of urethane (1.0 g/kg). A polyethylene tube was inserted from the urethra to the bladder and the tube was fixed by ligation. Then physiological saline was appropriately infused (infusion rate: about 0.2 ml/min., maximum: about 1.5 ml/animal) through the tube to cause rhythmic bladder contractions. The rhythmic bladder contractions were monitored by measuring the intravesical pressure through a polyethylene tube inserted into the bladder. After confirming that stable rhythmic bladder contractions occurred at least 10 times, a vehicle containing a prescribed dose of a test compound was intravenously administration at a dose of 1 ml/kg. In cases where the intravesical pressure, within 10 minutes after the administration of the test compound, decreased to 50% or less of the intravesical pressure immediately […] the administration, the test compound was judged as having inhibitory effect against urinary bladder contractions, and the time period until the intravesical pressure returned to more than 50% was defined as inhibitory time of rhythmic bladder contractions. As the vehicle for administration, physiological saline was used for test compounds 4, 7, 8, 9, 10, 13, 29, 30, 31, 33, 34, 75, 76, 79, 80, 81, 82, 84, 89, 90, 91, 93, 94, 95, 110 and 111, aqueous 10% dimethylsulfoxide (DMSO) solution was used for test compounds 11, 12, 14, 15, 16, 17, 18, 20, 21, 23, 28, 46, 47, 50, 55, 56, 57, 58, 59, 60, 61, 62, 63, 64, 65, 66, 68, 69, 70, 71, 72, 73, 74, 77, 78, 83, 85, 86, 87, 88, 92, 96, 97, 98, 99, 100, […], 103, 104, 105, 106, 107, 108 and […], aqueous 20% dimethylsulfoxide (DMSO) solution was used for test compounds 1, 2, 67 and 101, and aqueous 5% xylitol solution was used for test compounds 5 and 35. The aqueous 10% DMSO solution, aqueous 20% DMSO solution and the aqueous 5% xylitol solution per se, which may influence on the inhibitory time of rhythmic bladder contractions, were also tested at a dose of 1 ml/kg. With any of the compounds, prolongation of the inhibitory time of rhythmic bladder contractions was observed when compared with that obtained in the group to which the vehicle alone was administered.

Q: Which “Mean Inhibitory Time of Rhythmic Bladder Contractions” value (“Mean Inhibitory Time” for short) does the source give for `O=C1c2ccc(F)cc2C(=O)N1[C@H]1CC[C@@]2(O)[C@H]3Cc4ccc(O)c5c4[C@@]2(CCN3CC2CC2)[C@H]1O5` [Compound 68, N-(17-cyclopropylmethyl-4,5α-epoxy-3,14-dihydroxymorphinan-6α-yl)-4-fluorophthalimide] here?
A: 18.0 min

Same assay, conditions: anesthetized female SD rats, intravenous, dose 0.003 mg/kg body weight

Q: `O=C1c2ccccc2C(=O)N1[C@H]1CC[C@@]2(O)[C@H]3Cc4ccc(O)c5c4[C@@]2(CCN3CC2CC2)[C@H]1O5` [Compound 66, N-(17-cyclopropylmethyl-4,5α-epoxy-3,14-dihydroxymorphinan-6α-yl)-phthalimide] was tested. Which “Mean Inhibitory Time” value did it give?
A: 27.4 min

Same assay, conditions: anesthetized female SD rats, intravenous, dose 0.01 mg/kg body weight

Q: With `CC1=C(C)C(=O)N([C@H]2CC[C@@]3(O)[C@H]4Cc5ccc(O)c6c5[C@@]3(CCN4CC3CC3)[C@H]2O6)C1=O` [Compound 76, N-(17-cyclopropylmethyl-4,5α-epoxy-3,14-dihydroxy-morphinan-6α-yl)-2,3-dimethyl-maleimide] as the compound, how does the “Mean Inhibitory Time” value read?
A: 16.7 min

Q: How did the “Mean Inhibitory Time” value turn out when `O=C1Cc2ccccc2C(=O)N1[C@@H]1CC[C@@]2(O)[C@H]3Cc4ccc(O)c5c4[C@@]2(CCN3CC2CC2)[C@H]1O5` [Compound 106, 2-(17-cyclopropylmethyl-4,5α-epoxy-3,14-dihydroxy-morphinan-6β-yl)-4H-isoquinolin-1,3-dione] was run?
A: 12.9 min

Q: For `Cc1cccc2c1C(=O)N([C@@H]1CC[C@@]3(O)[C@H]4Cc5ccc(O)c6c5[C@@]3(CCN4CC3CC3)[C@H]1O6)C2=O` [Compound 18, N-(17-cyclopropylmethyl-4,5α-epoxy-3,14-dihydroxy-morphinan-6β-yl)-3-methylphthalimide], which “Mean Inhibitory Time” value is on record?
A: 13.7 min

Same assay, conditions: anesthetized female SD rats, intravenous, dose 0.03 mg/kg body weight

Q: For `Cc1ccc2c(c1)C(=O)N([C@@H]1CC[C@@]3(O)[C@H]4Cc5ccc(O)c6c5[C@@]3(CCN4CC3CC3)[C@H]1O6)C2=O` [Compound 12, N-(17-cyclopropylmethyl-4,5α-epoxy-3,14-dihydroxy-morphinan-6β-yl)-4-methylphthalimide], which “Mean Inhibitory Time” value is on record?
A: 16.5 min

Q: How did the “Mean Inhibitory Time” value turn out when `O=C1c2cccc(F)c2CN1[C@@H]1CC[C@@]2(O)[C@H]3Cc4ccc(O)c5c4[C@@]2(CCN3CC2CC2)[C@H]1O5` [Compound 81, 2-(17-cyclopropylmethyl-4,5α-epoxy-3,14-dihydroxy-morphinan-6β-yl)-4-fluoro-2,3-dihydro-isoindol-1-one] was run?
A: 16.1 min

Q: For `C=CCN1CC[C@]23c4c5ccc(O)c4O[C@H]2[C@H](N2C(=O)C4=C(CCCC4)C2=O)CC[C@@]3(O)[C@H]1C5` [Compound 73, N-(17-allyl-4,5α-epoxy-3,14-dihydroxymorphinan-6β-yl)-3,4,5,6-tetrahydrophthalimide], which “Mean Inhibitory Time” value is on record?
A: 13.4 min

Q: How did the “Mean Inhibitory Time” value turn out when `CC(=O)O[C@@]12CC[C@@H](N3C(=O)c4ccccc4C3=O)[C@@H]3Oc4c(O)ccc5c4[C@@]31CCN(CC1CC1)[C@@H]2C5` [Compound 91, N-(14-acetoxy-17-cyclopropylmethyl-4,5α-epoxy-3-hydroxymorphinan-6β-yl)-phthalimide] was run?
A: 14.7 min

Same assay, conditions: anesthetized female SD rats, intravenous, dose 0.1 mg/kg body weight

Q: How did the “Mean Inhibitory Time” value turn out when `CC1=C(C)C(=O)N([C@@H]2CC[C@@]3(O)[C@H]4Cc5ccc(O)c6c5[C@@]3(CCN4CC3CC3)[C@H]2O6)C1=O` [Compound 75, N-(17-cyclopropylmethyl-4,5α-epoxy-3,14-dihydroxy-morphinan-6β-yl)-2,3-dimethyl-maleimide] was run?
A: 20.2 min

Q: How did the “Mean Inhibitory Time” value turn out when `CN1CC[C@]23c4c5ccc(O)c4O[C@H]2[C@H](N2CCOc4ccccc42)CC[C@H]3[C@H]1C5` [Compound 4, 4,5α-epoxy-6β-(3,4-dihydro-2H-benzo [1,4]oxazino)-17-methyl-morphinan-3-ol] was run?
A: 15.6 min

Q: `C=CCN1CC[C@]23c4c5ccc(O)c4O[C@H]2[C@H](N2CC4=C(CCCC4)C2=O)CC[C@@]3(O)[C@H]1C5` [Compound 84, 2-(17-allyl-4,5α-epoxy-3,14-dihydroxy-morphinan-6-yl)-2,3,4,5,6,7-hexahydro-isoindol-1-one] was tested. Which “Mean Inhibitory Time” value did it give?
A: 9.3 min

Q: For `CN1CC[C@]23c4c5ccc(O)c4O[C@H]2[C@H](N2C(=O)c4ccccc4C2=O)CC[C@H]3[C@H]1C5` [Compound 95, N-(4,5α-epoxy-3-hydroxy-17-methyl-morphinan-6β-yl)-phthalimide], which “Mean Inhibitory Time” value is on record?
A: 15.0 min

Q: Which “Mean Inhibitory Time” value does the source give for `O=S1(=O)c2ccccc2CN1[C@@H]1CC[C@@]2(O)[C@H]3Cc4ccc(O)c5c4[C@@]2(CCN3CC2CC2)[C@H]1O5` [Compound 110, N-(17-cyclopropylmethyl-4,5α-epoxy-3,14-dihydroxy-morphinan-6β-yl)-2,3-dihydro-benzo[d]isothiazol-1,1-dioxide] here?
A: 12.6 min

Q: Which “Mean Inhibitory Time” value does the source give for `C=CCN1CC[C@]23c4c5ccc(O)c4O[C@H]2[C@H](N2C(=O)c4cc(Cl)c(Cl)cc4C2=O)CC[C@@]3(O)[C@H]1C5` [Compound 59, N-(17-allyl-4,5α-epoxy-3,14-dihydroxymorphinan-6β-yl)-4,5-dichlorophthalimide] here?
A: 6.1 min

Q: `Oc1ccc2c3c1O[C@H]1[C@H](N4CCc5ccccc54)CC[C@@]4(O)[C@@H](C2)N(CCc2ccccc2)CC[C@]314` [Compound 5, 4,5α-epoxy-6β-indolino-17-phenethyl-morphinan-3,14-diol] was tested. Which “Mean Inhibitory Time” value did it give?
A: 9.9 min

Q: For `O=C1C2=C(CCCC2)CN1[C@@H]1CC[C@@]2(O)[C@H]3Cc4ccc(O)c5c4[C@@]2(CCN3CC2CC2)[C@H]1O5` [Compound 83, 2-(17-cyclopropylmethyl-4,5α-epoxy-3,14-dihydroxy-morphinan-6β-yl)-2,3,4,5,6,7-hexahydro-isoindol-1-one], which “Mean Inhibitory Time” value is on record?
A: 10.6 min

Q: Which “Mean Inhibitory Time” value does the source give for `CCCN1CC[C@]23c4c5ccc(O)c4O[C@H]2[C@H](N2C(=O)c4ccccc4C2=O)CC[C@@]3(O)[C@H]1C5` [Compound 94, N-(4,5α-epoxy-3,14-dihydroxy-17-propyl-morphinan-6β-yl)-phthalimide] here?
A: 11.9 min

Q: Which “Mean Inhibitory Time” value does the source give for `O=C1[C@H]2C[C@H]2C(=O)N1[C@@H]1CC[C@@]2(O)[C@H]3Cc4ccc(O)c5c4[C@@]2(CCN3CC2CC2)[C@H]1O5` [Compound 79, N-(17-cyclopropylmethyl-4,5α-epoxy-3,14-dihydroxy-morphinan-6β-yl)-1,2-cyclopropanedicarboimide] here?
A: 2.1 min

Same assay, conditions: anesthetized female SD rats, intravenous, dose 0.3 mg/kg body weight

Q: For `CN1CC[C@]23c4c5ccc(O)c4O[C@H]2[C@H](N2CCOCc4ccccc42)CC[C@H]3[C@H]1C5` [Compound 10, 4,5α-epoxy-6β-(1,2,3,5-tetrahydro-benzo[e][1,4]oxazepino)-17-methyl-morphinan-3-ol], which “Mean Inhibitory Time” value is on record?
A: 7.8 min

Q: How did the “Mean Inhibitory Time” value turn out when `CN1C(=O)CN([C@@H]2CC[C@@]3(O)[C@H]4Cc5ccc(O)c6c5[C@@]3(CCN4C)[C@H]2O6)c2ccccc21` [Compound 8, 4-(4,5α-epoxy-3,14-dihydroxy-17-methyl-morphinan-6β-yl)-1-methyl-3,4-dihydro-1H-quinoxalino-2-one] was run?
A: 6.8 min

Same assay, conditions: anesthetized female SD rats, intravenous, dose 1.0 mg/kg body weight

Q: How did the “Mean Inhibitory Time” value turn out when `CCN(CC)C(=O)[C@@H]1CCCN1[C@H]1CC[C@H]2[C@H]3Cc4ccc(O)c5c4[C@@]2(CCN3C)[C@H]1O5` [Compound 31, 1-(4,5α-epoxy-3-hydroxy-17-methyl-morphinan-6α-yl)-pyrrolidin-(2S)-carboxyl diethylamide] was run?
A: 1.0 min

Q: Which “Mean Inhibitory Time” value does the source give for `O=C1c2ccccc2C(=O)N1[C@@H]1CC[C@@]2(O)[C@H]3Cc4ccc(O)c5c4[C@@]2(CCN3)[C@H]1O5` [Compound 14, N-(4,5α-epoxy-3,14-dihydroxy-morphinan-6β-yl)-phthalimide] here?
A: 7.9 min

Q: With `Oc1ccc2c3c1O[C@H]1[C@H](N4CCCC4)CC[C@@]4(O)[C@@H](C2)N(CC2CC2)CC[C@]314` [Compound 111, 17-cyclopropylmethyl-4,5α-epoxy-6β-(pyrrolidin-1-yl)-morphinan-3,14-diol] as the compound, how does the “Mean Inhibitory Time” value read?
A: 2.8 min

Q: For `CN1CC[C@]23c4c5ccc(O)c4O[C@H]2[C@H](N2CC(=O)Nc4ccccc42)CC[C@@]3(O)[C@H]1C5` [Compound 7, 4-(4,5α-epoxy-3,14-dihydroxy-17-methyl-morphinan-6β-yl)-3,4-dihydro-1H-quinoxalino-2-one], which “Mean Inhibitory Time” value is on record?
A: 3.8 min

Same assay, conditions: anesthetized female SD rats, intravenous, dose 3.0 mg/kg body weight

Q: `CCN(CC)C(=O)[C@H]1CCCN1[C@@H]1CC[C@@]2(O)[C@H]3Cc4ccc(O)c5c4[C@@]2(CCN3C)[C@H]1O5` [Compound 30, 1-(4,5α-epoxy-3,14-dihydroxy-17-methyl-morphinan-6β-yl)-pyrrolidin-(2R)-carboxyl diethylamide] was tested. Which “Mean Inhibitory Time” value did it give?
A: 2.3 min
